We go through 3 molecules from US20170029823A1, “TRUNCATED TRK B AND TRK C ANTAGONISTS AND USES THEREOF” (priority 2015, published 2017).

“Also recorded” adds a separate entry of the source.

The test system of one assay is p-Erk and p-Akt. Nature of the assay: p-Erk and p-Akt immunohistochemistry in RHOP retinas after intravitreal injection. The class given is in vivo, mouse. As to conditions: post-natal day 18, 24 h after intravitreal PD98059, vs vehicle-injected eye. On the procedure: (§1) Intravitreal injections were performed as follows. Briefly, mice were anesthetized with isoflurane, delivered through a gas anesthetic mask. The drugs were delivered using a Hamilton syringe. Injections were done using a surgical microscope to visualize the Hamilton entry into the vitreous chamber and confirm delivery of the injected solution. After the injection, the syringe was left in place for 30 sec and slowly withdrawn from the eye to prevent reflux. Experimental right eyes were injected with the test agents and control left eyes serve as internal control.
All intravitreal injections delivered 2 μl of the MAPK/ERK inhibitor PD98059 (10 mM stock) or the selective-TrkC antagonist 3F (1 mM stock). Control eyes were injected with 50% DMSO for PD98059 assays or 5% DMSO for the compound 3F assays. Intravitreal injections in wild-type or RHOP-mice were made at post-natal day 17. Experimental time points to measure ONL thinning were set at post-natal days 18, 22, 24 and 28. The end point for analyzing the effect of the compounds on the expression of p-Erk and p-Akt was at post-natal day 18 (24 hours after intravitreal injection). […]
For each experimental condition, a minimum of 6 images were acquired from 3 sections cut from different areas of the retina (n=3-4 retinas per group). The area of the profiles of the cells expressing p-Akt and p-Erk was measured using ImageJ software. […]

Assay [1] deals with RHOP347S (RHOP) transgenic mouse model of retinitis pigmentosa. Nature of the assay: ONL thickness by FD-OCT after intravitreal injection. As to conditions: PD98059 intravitreal at post-natal day 17. The class given is in vivo. On the procedure: as §1
All intravitreal injections delivered 2 μl of the MAPK/ERK inhibitor PD98059 (10 mM stock) or the selective-TrkC antagonist 3F (1 mM stock). Control eyes were injected with 50% DMSO for PD98059 assays or 5% DMSO for the compound 3F assays. Intravitreal injections in wild-type or RHOP-mice were made at post-natal day 17. Experimental time points to measure ONL thinning were set at post-natal days 18, 22, 24 and 28. The end point for analyzing the effect of the compounds on the expression of p-Erk and p-Akt was at post-natal day 18 (24 hours after intravitreal injection).
A noninvasive prototype spectrometer-based FD-OCT system was used to acquire the retinal images. FD-OCT is a noninvasive method that allows time-kinetic studies in the same animal, with axial resolution in tissue nominally better than 4 μm and repeatability of the measurements from B-scans better than 1 μm. Data acquisition was performed using custom software written in C++ for rapid frame grabbing, processing, and display of two-dimensional images. Manual segmentations were used to measure the thicknesses of the mice retinas. Mice were anesthetized using isoflurane/O2 and placed on a platform, and the head was oriented to an angle at which the eye was properly aligned to the optical beam. The pupils were dilated with a topical solution (atropine sulfate 1%; Alcon, Fort Worth, Tex.). Refraction of light at the cornea was cancelled by placing over the eye a generic artificial tear gel. Alignment of the optical system to the […] retina required a few minutes and was followed by rapid acquisition of data (about 5 s/vol). During retinal scanning, three volumes were acquired in different sectors of the retina containing the ON head as landmark.
After processing, three B-scans were randomly selected from each volume. The retinal thickness measurements were performed with Matlab software using the saved data. In each B-scan, the thickness of the nerve fiber layer (NFL)—ganglion cell layer (GCL)—inner plexiform layer (IPL), hereafter referred to as NGI and outer nuclear layer (ONL) was measured at three adjacent points. […]

In a further assay the target is T1, TrkC-FL (Homo sapiens, UniProt Q16288).
T1 construct: transfected with human full-length TrkC cDNA (293-TrkC-FL); expressed in transfected cells; host or cells: HEK293 (stably transfected subclone 293-TrkC-FL)
T1 sequence (Q16288 32-839): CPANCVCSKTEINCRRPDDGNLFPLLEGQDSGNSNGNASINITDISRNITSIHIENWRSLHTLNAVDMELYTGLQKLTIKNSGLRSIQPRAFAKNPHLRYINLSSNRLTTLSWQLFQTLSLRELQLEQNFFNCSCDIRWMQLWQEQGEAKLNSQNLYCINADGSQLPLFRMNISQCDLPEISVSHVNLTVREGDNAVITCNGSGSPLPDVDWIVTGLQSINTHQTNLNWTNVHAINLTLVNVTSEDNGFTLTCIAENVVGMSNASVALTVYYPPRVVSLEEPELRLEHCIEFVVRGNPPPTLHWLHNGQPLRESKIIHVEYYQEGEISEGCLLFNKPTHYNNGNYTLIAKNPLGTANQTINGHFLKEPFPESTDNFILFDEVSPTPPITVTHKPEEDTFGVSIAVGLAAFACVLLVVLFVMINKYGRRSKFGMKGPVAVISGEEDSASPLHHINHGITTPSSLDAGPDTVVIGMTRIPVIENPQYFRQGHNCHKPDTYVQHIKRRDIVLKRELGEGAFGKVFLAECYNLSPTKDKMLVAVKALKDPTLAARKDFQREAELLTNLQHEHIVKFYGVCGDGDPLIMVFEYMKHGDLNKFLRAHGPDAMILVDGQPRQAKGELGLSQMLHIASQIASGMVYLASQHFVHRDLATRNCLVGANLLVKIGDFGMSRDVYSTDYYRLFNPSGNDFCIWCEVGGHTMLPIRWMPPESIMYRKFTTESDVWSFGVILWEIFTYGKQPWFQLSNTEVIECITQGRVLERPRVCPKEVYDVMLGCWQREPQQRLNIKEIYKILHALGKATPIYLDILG
Nature of the assay: p-Erk and p-Akt western blot after NT-3 stimulation in 293-TrkC-FL cells. In kind it is cell-based. As to conditions: NT-3 4 nM for 10 min. Here is the method:
(§2) FIG. 15A-FIG. 15D illustrates TrkC.T1 directly activates MAPK/Erk in Müller cells. Representative western blots showing the levels of TrkC-FL (140 KDa), TrkC.T1 (110 kDa), p-Erk 1/2 (44 and 42 KDa) and p-Akt (60 KDa) in HEK293 cell expression system and rMC-1 cells, with or without stimulation of 4 nM NT-3 for 10 min. […] FIG. 15B, FIG. 15D Densitometric quantification of p-Erk and p-Akt signal standardized to untreated controls (arbitrary value of 1). The data represent relative protein levels±SEM. n=3 independent experiments. * p<0.05, ** p<0.01 and ***p<0.001.
(§3) HEK293 cells were transfected with human full-length TrkC cDNA (293-TrkC-FL) or with rat TrkC.T1 cDNA (293-TrkC.T1). The cells are stably transfected subclones that express high levels of TrkC-FL or TrkC.T1 receptors and are respectively grown under drug selection (0.5 mg/ml G418 or 1 mg/ml Puromycin).
(§4) All cells types were serum-starved for 1 hour. […]
(§5) Whole retinas either from culture or freshly dissected were collected and added to 200 μL lysis buffer (20 mM Tris-HCl pH 7.5, 137 mM NaCl, 2 mM EDTA, 1% Nonidet P-40) containing a protease inhibitor cocktail (Roche). […] Protein quantities were assessed using the Bradford assay (BioRad), and 40 μg of total protein was mixed with Laemmli buffer, boiled for 5 minutes and loaded onto 10% gels. […] Blots were scanned and quantified using ImageJ software. […]
(In general: In western blotting, separated proteins are transferred to a membrane and probed.)

In another assay the target is T2, TrkC.T1 (Rattus norvegicus, UniProt Q03351).
T2 construct: expressed in transfected cells; host or cells: HEK293 (stably transfected subclone 293-TrkC.T1)
T2 sequence (Q03351 32-612 isoform Q03351-5 limits assumed): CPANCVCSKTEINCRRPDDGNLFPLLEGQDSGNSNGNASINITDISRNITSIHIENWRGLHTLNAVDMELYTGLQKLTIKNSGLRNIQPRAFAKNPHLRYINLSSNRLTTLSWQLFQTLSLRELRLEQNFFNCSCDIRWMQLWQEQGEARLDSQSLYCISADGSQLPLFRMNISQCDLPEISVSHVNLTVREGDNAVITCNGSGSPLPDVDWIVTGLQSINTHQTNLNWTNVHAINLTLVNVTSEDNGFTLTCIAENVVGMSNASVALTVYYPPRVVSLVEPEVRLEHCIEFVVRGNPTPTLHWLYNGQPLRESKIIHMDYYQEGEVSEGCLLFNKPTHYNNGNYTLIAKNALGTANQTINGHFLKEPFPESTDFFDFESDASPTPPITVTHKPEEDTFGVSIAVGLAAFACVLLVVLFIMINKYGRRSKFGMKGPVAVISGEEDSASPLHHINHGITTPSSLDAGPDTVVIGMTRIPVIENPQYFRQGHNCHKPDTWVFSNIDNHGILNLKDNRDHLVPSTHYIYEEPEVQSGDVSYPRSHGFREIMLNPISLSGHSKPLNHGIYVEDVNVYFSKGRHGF
Nature of the assay: p-Erk and p-Akt western blot after NT-3 stimulation in 293-TrkC.T1 cells. As to conditions: non-infected 293-TrkC.T1 cells, NT-3 4 nM for 10 min. In kind it is cell-based. On the procedure:
as §2, §3, §4, §5

The target of assay [2] is T3, endogenous TrkC.T1 in rMC-1 cells (Rattus norvegicus, UniProt Q03351).
T3 construct: endogenous TrkC.T1 mRNA in r-MC-1 cells was silenced; endogenous in cells; host or cells: rMC-1 (Müller glial cell line)
T3 sequence (Q03351 32-612 isoform Q03351-5 limits assumed): as above
Nature of the assay: p-Erk and p-Akt western blot after NT-3 stimulation in rMC-1 cells. The class given is cell-based. As to conditions: rMC-1 infected and rMC-1 wild-type cells, 4 nM NT-3 for 10 min. Here is the method:
as §2
A short hairpin RNA (shRNA) specifically targeting a unique 3′ sequence of the TrkC.T1 mRNA was designed using the DSIR algorithm. The TrkC.T1-targeting shRNA sequence […] (SEQ ID NO: 1), or a scrambled control sequence […] […] TrkC.T1-specific depletion was determined by real-time quantitative PCR and by Western blotting.
as §4, §5

The test system of another assay is TNF-α. The experiment in a line: TNF-α mRNA (PCR) and protein (ELISA) in rMC-1 cells. In kind it is cell-based. As to conditions: NT-3 (10 nM) or LPS (1 μg/ml) for 6 hrs. The source says:
FIG. 7A-FIG. 7D illustrates development and validation of a TrkC.T1 inhibitor that prevents TrkC.T1-mediated induction of TNF-α FIG. 7A The mRNA levels of TrkC-FL and TrkC.T1 were quantified by PCR, after infection with lentivirus pLKO.Scr (scrambled control) or with pLKO.1 (expressing a unique shRNA (SEQ ID NO: 1) targeting TrkC.T1 mRNA specifically). Results are normalized to reference GAPDH mRNA. Data are expressed as the mean+SEM; n=3 independent experiments each in triplicate. […] FIG. 7B and FIG. 7C In rMC-1 cells the levels of TNF-α mRNA and protein were quantified by PCR or by ELISA after infection with pLKO.1TrkC.T1 or pLKOScr control. NT-3 and LPS treatment induce TNF-α and pLKO.1 prevents it. Data are standardized to untreated control. Average±sem, n=3 independent experiments each in triplicate. FIG. 7D In spinal cord of ALS G93A versus wild type mice the levels of TNF-α mRNA were assessed by quantitative PCR. Results were normalized to GAPDH. Data are expressed as the mean±SEM n=8 independent spinal cords per group. A-F t-test was applied for statistical analysis. * p<0.05, ** p<0.01 versus control. Stars with brackets indicate differences between the indicated groups.
In rMC-1 cells treatment with NT-3 (10 nM) or LPS (1 μg/ml) for 6 hrs increases TNF-α mRNA (FIG. 7B) and protein (FIG. 7C).
On the technique in general: ELISA stands for enzyme-linked immunosorbent assay.

The target of assay [3] is rat TrkC.T1 expressed on HEK293 cells (293-TrkC.T1) (rat) (UniProt Q03351). The experiment in a line: cell-based or functional assay.
rat TrkC.T1 expressed on HEK293 cells (293-TrkC.T1) (rat), sequence (Q03351 32-864): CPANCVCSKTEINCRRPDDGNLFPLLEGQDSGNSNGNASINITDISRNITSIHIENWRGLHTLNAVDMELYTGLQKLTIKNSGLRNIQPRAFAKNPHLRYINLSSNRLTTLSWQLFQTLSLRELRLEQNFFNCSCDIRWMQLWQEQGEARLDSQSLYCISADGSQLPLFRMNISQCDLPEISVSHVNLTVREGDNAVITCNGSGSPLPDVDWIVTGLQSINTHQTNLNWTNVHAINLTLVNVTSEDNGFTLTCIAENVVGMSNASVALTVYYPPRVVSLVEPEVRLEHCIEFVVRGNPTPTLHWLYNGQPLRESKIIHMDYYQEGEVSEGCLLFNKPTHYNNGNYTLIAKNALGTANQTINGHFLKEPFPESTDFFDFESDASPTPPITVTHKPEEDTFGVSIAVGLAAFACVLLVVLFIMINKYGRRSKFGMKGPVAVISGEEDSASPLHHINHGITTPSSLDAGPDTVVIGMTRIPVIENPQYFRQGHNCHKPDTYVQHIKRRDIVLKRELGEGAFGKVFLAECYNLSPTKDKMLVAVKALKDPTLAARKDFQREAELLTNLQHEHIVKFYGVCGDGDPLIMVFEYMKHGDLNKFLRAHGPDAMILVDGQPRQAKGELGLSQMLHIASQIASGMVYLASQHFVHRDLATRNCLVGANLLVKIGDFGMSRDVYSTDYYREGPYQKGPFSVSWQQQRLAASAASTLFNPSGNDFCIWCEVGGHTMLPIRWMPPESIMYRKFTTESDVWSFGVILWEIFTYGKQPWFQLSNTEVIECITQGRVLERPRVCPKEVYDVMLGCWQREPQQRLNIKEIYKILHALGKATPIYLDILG
Assay [4] has as its target human full-length TrkC expressed on HEK293 cells (293-TrkC-FL) (human) (UniProt Q16288). Nature of the assay: cell-based or functional assay.

human full-length TrkC expressed on HEK293 cells (293-TrkC-FL) (human), sequence (Q16288 32-839): as the sequence (Q16288 32-839) above

`COc1cccc(-c2cc(=O)c3ccccc3o2)c1N` [PD98059]: the “block of p-Erk in Müller cells” value with p-Erk and p-Akt was 030%. Besides, the “p-Erk signal (immunoreactivity) in Müller cells” value with p-Erk and p-Akt was “abolished; also recorded: reduced”. Moreover, the “ONL thickness vs vehicle-injected eye” value in assay [1] (RHOP mice, post-natal day 22 (did not reach significant values)) is on record as “slightly bigger”; in assay [1] (RHOP mice, post-natal day 24), “clear protective effect; also recorded: bigger”; in assay [1] (RHOP mice, post-natal day 28), “still larger; also recorded: bigger”; in assay [1] (WT mice), “No changes”.

Consider neurotrophin-3 [NT-3], for which, in the assay with TrkC-FL, the “increase in p-Akt levels” value was about 1.5 and the “increase in p-Erk” value is on record as about 2.5 fold. In the assay with TrkC.T1, the “increase in p-Erk levels” value was about 2 fold. Further, the “levels of p-Akt” value in assay [2] is reported as “did not change”. Further, in the assay on TNF-α, the “TNF-α mRNA and protein” value is given as “increases; also recorded: induce”.

B1: neurotrophin-3 (NT-3) (ligand, UniProt P20783 139-257, looked up)
chain: YAEHKSHRGEYSVCDSESLWVTDKSSAIDIRGHQVTVLGEIKTGNSPVKQYFYETRCKEARPVKNGCRGIDDKHWNSQCKTSQTYVRALTSENNKLVGWRWIRIDTSCVCALSRKIGRT
Regarding B1, the p-Erk level (Western blot densitometry) after 4 nM NT-3 for 10 min, non-infected 293-TrkC.T1 cells in assay [3] came to 2 fold. In assay [4], this molecule displayed a p-Akt level (Western blot densitometry) after 4 nM NT-3 for 10 min of 1.5 fold and a p-Erk level (Western blot densitometry) after 4 nM NT-3 for 10 min of 2.5 fold.
